Assay results as given in PubChem BioAssay (NCI).
“And” between values parts separate entries of the source, which are not always exact repeats. Identical values can stand only once.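 1) Cells in 96-well plates. 2) Compound, 48 h, 5 concentrations. 3) Linear interpolation between surrounding doses. 4) Unreached endpoint = highest concentration. The concentration for 50% growth inhibition is given as GI50. The concentration for full growth arrest is given as TGI.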

Experiments:
Assay in all cases: NCI anticancer screen, dose series, 48 h
[1] = test system: MDA-N
[2] = test system: DLD-1 colon
[3] = test system: DMS 114 small cell lung
[4] = test system: DMS 273 small cell lung
[5] = test system: KM20L2 colon
[6] = test system: M19-MEL melanoma
[7] = test system: RXF-631 renal
[8] = test system: XF 498 CNS
[9] = test system: HOP-18 NSCLC

CC[C@@]1(O)C(=O)NCc2c1cc1n(c2=O)Cc2cc3ccccc3nc2-1
GI50 [1]: 12.4 µM | TGI [1]: > 100 µM

O=C(CC(=O)N1N=C(c2ccccc2)C(N=Nc2ccc(C(=O)O)cc2)C1=O)Nc1ccc(F)cc1 (stereo not drawn)
TGI [2]: > 100 µM | TGI [3]: > 100 µM | TGI [4]: 78.7 µM | TGI [5]: > 100 µM | TGI [6]: > 100 µM | TGI [7]: > 100 µM | TGI [8]: 93.4 µM

c1ccc2c(CNCCCCCCNCc3cccc4ccccc34)cccc2c1
TGI [2]: 13.8 µM | TGI [3]: 20.2 µM | TGI [4]: 26.6 µM | TGI [9]: 29.1 µM | TGI [5]: 6.74 µM | TGI [6]: 14.3 µM | TGI [7]: 9.46 µM | TGI [8]: 7.26 µM

C/C(=C\c1ccc(Cl)cc1)C(C)(C)C(=O)O
TGI [1]: > 100 µM

CC#C[C@@]1(O)CCCC[C@@H]1O
TGI [3]: > 100 µM | TGI [4]: > 100 µM | TGI [9]: > 100 µM | TGI [5]: > 100 µM | TGI [6]: > 100 µM | TGI [7]: > 100 µM | TGI [8]: > 100 µM

COc1ccccc1/C=C\c1cnnc2ccccc12
TGI [1]: 9.66 µM

Cc1cc(NS(=O)(=O)c2ccc(Nc3c4ccccc4nc4c(C(=O)Nc5ccc(S(=O)(=O)N=C(N)N)cc5)cccc34)cc2)no1
TGI [2]: > 100 µM | TGI [3]: > 100 µM | TGI [4]: > 100 µM | TGI [9]: > 100 µM | TGI [5]: > 100 µM | TGI [6]: > 100 µM | TGI [7]: > 100 µM | TGI [8]: > 100 µM

O=c1[nH]cc(CS(=O)(=O)Cc2c[nH]c(=O)[nH]c2=O)c(=O)[nH]1
TGI [1]: > 100 µM

COC(=O)/C=C/C(=O)C1C(C(=O)OC)C2(C(=O)OC)CCC1(C(=O)OC)N2 (stereo not drawn)
TGI [2]: > 100 µM | TGI [3]: > 100 µM | TGI [9]: > 100 µM | TGI [6]: > 100 µM

Cc1cc(C)cc(-n2c3nc(=O)n(C)c(=O)c-3nc3ccccc32)c1
TGI [3]: 29.1 µM | TGI [4]: 37.7 µM | TGI [9]: > 100 µM | TGI [5]: 52.9 µM | TGI [6]: 18.5 µM | TGI [7]: 80.3 µM | TGI [8]: 81 µM

COC(=O)C(=O)C1(CCC(C)=O)c2ccccc2-c2ccccc21
TGI [2]: > 100 µM | TGI [3]: > 100 µM | TGI [4]: > 100 µM | TGI [9]: > 100 µM | TGI [5]: > 100 µM | TGI [6]: > 100 µM

COC(=O)C[CH](C(=O)OC)[Ge]([CH3])([CH3])[S]c1ccccc1 (stereo not drawn)
GI50 [2]: 22 µM | TGI [2]: 42.4 µM | GI50 [4]: 12.6 µM | TGI [4]: 29.9 µM | GI50 [9]: > 100 µM | TGI [9]: > 100 µM | GI50 [5]: 26.7 µM | TGI [5]: 67.9 µM | GI50 [6]: 16.9 µM | TGI [6]: 54.7 µM

Cc1cccc(NC(=O)C(=O)C2C(=O)NC(=O)NC2=O)c1C
TGI [2]: > 100 µM | TGI [3]: > 100 µM | TGI [4]: > 100 µM | TGI [9]: > 100 µM | TGI [5]: > 100 µM | TGI [6]: > 100 µM

CCOC1OCCCC1Br (stereo not drawn)
TGI [1]: > 100 µM

O=C(O)c1c(O)c2cc(Br)ccc2oc1=O
TGI [1]: > 100 µM

CC(C)[C@@H]1C=C(c2ccccc2)c2ccccc2C1C(C#N)(C#N)C(C)C (stereo partly drawn)
TGI [2]: > 100 µM | TGI [3]: > 100 µM | TGI [4]: > 100 µM | TGI [9]: > 100 µM | TGI [5]: > 100 µM | TGI [6]: > 100 µM | TGI [8]: > 100 µM

O=C1c2ccccc2C(=O)c2c(NCCCNCCO)ccc(NCCCNCCO)c21
TGI [3]: 25.2 µM | TGI [9]: 67.2 µM | TGI [5]: 19.9 µM | TGI [6]: 18.6 µM | TGI [1]: 20 µM | TGI [7]: > 100 µM | TGI [8]: 27 µM

Cn1cnc([N+](=O)[O-])c1Sc1ccccn1
TGI [2]: > 100 µM | TGI [3]: > 100 µM | TGI [4]: > 100 µM | TGI [9]: 96.1 µM | TGI [6]: > 100 µM | TGI [7]: > 100 µM | TGI [8]: > 100 µM

C=CN1C(=O)OC(c2ccccc2)C1c1ccccc1 (stereo not drawn)
GI50 [2]: > 100 µM | TGI [2]: > 100 µM | GI50 [3]: > 31.6 µM and 73.1 µM | TGI [3]: > 100 µM | TGI [4]: > 100 µM | GI50 [9]: > 100 µM | TGI [9]: > 100 µM | GI50 [5]: > 100 µM | TGI [5]: > 100 µM | GI50 [6]: > 100 µM | TGI [6]: > 100 µM | GI50 [7]: > 100 µM | TGI [7]: > 100 µM

N#Cc1cccc(NC(=O)c2ccc(C(=O)O)c(C(=O)c3ccc(C(=O)O)c(C(=O)Nc4cccc(C#N)c4)c3)c2)c1
TGI [2]: > 100 µM | TGI [3]: > 100 µM | TGI [4]: > 100 µM | TGI [9]: > 100 µM | TGI [5]: > 100 µM | TGI [6]: > 100 µM | TGI [8]: > 100 µM

COC(=O)c1c[nH]c(=O)[nH]c1=O
TGI [1]: > 100 µM

S=c1nc(-c2nc(=S)[nH]c3c2CCCCCCCCCC3)c2c([nH]1)CCCCCCCCCC2
TGI [1]: > 100 µM

CN(C)C[C@H]1CC[C@@H](CN(C)C)C1=O
TGI [2]: 11.5 µM | TGI [3]: 17.5 µM | TGI [4]: 16.7 µM | TGI [9]: 14.8 µM | TGI [5]: 25.5 µM | TGI [6]: 17 µM | TGI [1]: 16.1 µM | TGI [8]: 15.1 µM

CCCCCCCCCCCC(=O)OCC1OC(n2cc(F)c(=O)[nH]c2=O)C(NC(=O)OCc2ccccc2)C(O)C1O (stereo not drawn)
TGI [4]: 36.2 µM | TGI [5]: 42.3 µM | TGI [6]: 37.2 µM

O=P(Oc1ccc(Cl)cc1)(Oc1ccc(Cl)cc1)N1CC1
TGI [1]: > 10 µM

C(=N\Nc1nnc2c(n1)[nH]c1ccccc12)/c1cccnc1
TGI [1]: > 100 µM

CCC1C(C)c2c([nH]c3ccccc23)C2C(=O)N(c3ccccc3)C(=O)C21 (stereo not drawn)
TGI [2]: 34.9 µM | TGI [3]: 29.7 µM | TGI [4]: 37.4 µM | TGI [6]: 29.6 µM | TGI [7]: 26.3 µM | TGI [8]: 36 µM

COc1ccc(C2OC(=O)c3c2ccc2ccccc32)c(C)c1 (stereo not drawn)
TGI [1]: 4.34 µM

C/C1=C\[C@H](C)C[C@H](C)OC(=O)C[C@H](c2ccc(O)cc2)NC(=O)[C@@H](Cc2c(Br)[nH]c3ccccc23)N(C)C(=O)[C@H](C)NC(=O)[C@@H](C)C1
GI50 [2]: 0.148 µM | TGI [2]: 2.39 µM | GI50 [3]: 0.0424 µM | TGI [3]: 0.837 µM and 1.56 µM | TGI [4]: 0.83 µM | GI50 [5]: 0.0277 µM | TGI [5]: 10.7 µM | GI50 [6]: 0.0414 µM | TGI [6]: 2.02 µM | TGI [1]: 2.83 µM | GI50 [7]: 0.047 µM | GI50 [8]: 0.0249 µM | TGI [8]: 0.448 µM and 0.0585 µM

Nc1[nH]c(=O)ncc1F
TGI [1]: > 100 µM

O=C(c1cc(O)ccc1O)c1ccccc1C(Cl)(Cl)Cl
TGI [3]: > 100 µM | TGI [4]: > 100 µM | TGI [9]: > 100 µM | TGI [5]: > 100 µM | TGI [6]: > 100 µM | TGI [8]: 84.2 µM

CC(=O)NS(=O)(=O)c1ccc(NC(=O)COC(=O)c2cccc3c(=O)c4ccccc4[nH]c23)cc1
TGI [3]: > 100 µM | TGI [4]: > 100 µM | TGI [9]: > 100 µM | TGI [6]: > 100 µM | TGI [8]: > 100 µM

CC1=NNC(=NCCN(C)C)C/C1=C/c1ccccc1Cl
TGI [2]: > 100 µM | TGI [3]: > 100 µM | TGI [4]: > 100 µM | TGI [9]: > 100 µM | TGI [5]: > 100 µM | TGI [6]: > 100 µM | TGI [7]: > 100 µM | TGI [8]: > 100 µM

Cc1ccc(S(=O)(=O)N(/N=C(\N)Oc2ccc(Cl)cc2)C(=N)Oc2ccc(Cl)cc2)cc1
TGI [2]: > 100 µM | TGI [3]: > 100 µM | TGI [4]: > 100 µM | TGI [9]: > 100 µM | TGI [5]: > 100 µM | TGI [6]: > 100 µM | TGI [8]: > 100 µM

O=C(c1ccccc1)C1C(C(=O)c2ccccc2)N1Cc1ccccc1 (stereo not drawn)
TGI [1]: 37.4 µM

CN(C)c1ccc(/C=C2\C[C@H]3[C@@H]4CC=C5C[C@@H](N6CCCC6)CC[C@]5(C)[C@H]4CC[C@]3(C)[C@H]2O)cc1
GI50 [1]: 2.87 µM | TGI [1]: 2.34 µM and 8.6 µM

Cc1nc(C)c(C(=O)Nc2cccc3c2C(=O)NC3=O)cc1C(=O)Nc1cccc2c1C(=O)NC2=O
TGI [2]: > 100 µM | TGI [3]: > 100 µM | TGI [4]: > 100 µM | TGI [9]: > 100 µM | TGI [5]: > 100 µM | TGI [6]: > 100 µM | TGI [8]: > 100 µM

Nc1nc2c(ncn2C2OC(CO)C(O)C2N)c(=O)[nH]1 (stereo not drawn)
TGI [2]: > 100 µM | TGI [3]: > 100 µM | TGI [4]: > 100 µM | TGI [6]: > 100 µM | TGI [7]: > 100 µM | TGI [8]: > 100 µM

N/C(=N\NS(=O)(=O)c1ccccc1)Oc1ccc(Cl)cc1
TGI [2]: > 100 µM | TGI [3]: > 100 µM | TGI [4]: > 100 µM | TGI [9]: > 100 µM | TGI [5]: > 100 µM | TGI [6]: > 100 µM | TGI [8]: > 100 µM

Cc1cnc[nH]c1=O
TGI [2]: > 100 µM | TGI [3]: > 100 µM | TGI [4]: > 100 µM | TGI [9]: > 100 µM | TGI [5]: > 100 µM | TGI [6]: > 100 µM | TGI [7]: > 100 µM
